Reference: the supplement of paper PMC4932681

Key:
[1] = tested on: BT-474; assay: drug sensitivity score (DSS) (DSS (dimensionless)); higher = more sensitive; extreme values may be limits of the assay; conditions: 72 h
Description: (§1)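 FIMM FO2B library drugs were tested at 5 concentrations (10,000-fold range) for 72 h, with CellTiter-Glo viability normalised to DMSO and benzethonium chloride controls. The Drug Sensitivity Score (DSS) is computed from the fitted logistic dose-response curve (area-based; 0 = inactive). Resistant lines and the 'in 1µM tamoxifen' arms were tested in 1 µM 4-OH-tamoxifen.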

[2] = tested on: ZR-75-1 Tam1; assay: as above; conditions: 4-OH-tamoxifen in medium 1 µM; 72 h
Description: as §1

[3] = tested on: T-47D Tam1; assay: as above; conditions: 4-OH-tamoxifen in medium 1 µM; 72 h
Description: as §1

[4] = tested on: ZR-75-1 Tam2; assay: as above; conditions: 4-OH-tamoxifen in medium 1 µM; 72 h
Description: as §1

[5] = tested on: T-47D Tam2; assay: as above; conditions: 4-OH-tamoxifen in medium 1 µM; 72 h
Description: as §1

[6] = tested on: MCF-7 Tam1; assay: as above; conditions: 4-OH-tamoxifen in medium 1 µM; 72 h
Description: as §1

[7] = tested on: BT-474 Tam2; assay: as above; conditions: 4-OH-tamoxifen in medium 1 µM; 72 h
Description: as §1

[8] = tested on: ZR-75-1; assay: as above; conditions: 72 h
Description: as §1

[9] = tested on: T-47D; assay: as above; conditions: 72 h
Description: as §1

[10] = tested on: BT-474 Tam1; assay: as above; conditions: 4-OH-tamoxifen in medium 1 µM; 72 h
Description: as §1

[11] = tested on: MCF-7; assay: as above; conditions: 72 h
Description: as §1

[12] = tested on: BT-474; assay: relative IC50 (midpoint of fitted logistic curve, plateau may be below 50% inhibition; CellTiter-Glo viability); higher = less potent; conditions: 72 h
Description: (§2)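 FIMM FO2B library drugs were plated at 5 concentrations spanning a 10,000-fold range in 384-well plates. Cells were incubated for 72 h at 37 °C and viability was read by CellTiter-Glo, normalised to DMSO (0% inhibition) and 100 µM benzethonium chloride (100% inhibition). IC50 values come from logistic dose-response fits (Breeze pipeline). Tamoxifen-resistant lines and the 'in 1µM tamoxifen' parental arms were tested in medium with 1 µM 4-OH-tamoxifen.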

[13] = tested on: T-47D Tam1; assay: as above; conditions: 4-OH-tamoxifen in medium 1 µM; 72 h
Description: as §2

[14] = tested on: T-47D Tam2; assay: as above; conditions: 4-OH-tamoxifen in medium 1 µM; 72 h
Description: as §2

[15] = tested on: MCF-7; assay: as above; conditions: 72 h
Description: as §2

[16] = tested on: ZR-75-1; assay: as above; conditions: 72 h
Description: as §2

[17] = tested on: T-47D; assay: as above; conditions: 72 h
Description: as §2

[18] = tested on: BT-474 Tam1; assay: as above; conditions: 4-OH-tamoxifen in medium 1 µM; 72 h
Description: as §2

[19] = tested on: ZR-75-1 Tam1; assay: as above; conditions: 4-OH-tamoxifen in medium 1 µM; 72 h
Description: as §2

[20] = tested on: BT-474 Tam2; assay: as above; conditions: 4-OH-tamoxifen in medium 1 µM; 72 h
Description: as §2

[21] = tested on: ZR-75-1 Tam2; assay: as above; conditions: 4-OH-tamoxifen in medium 1 µM; 72 h
Description: as §2

[22] = tested on: MCF-7 Tam1; assay: as above; conditions: 4-OH-tamoxifen in medium 1 µM; 72 h
Description: as §2

SMILES	drug sensitivity score ([1]; 4-OH-tamoxifen in medium 0 µM)	drug sensitivity score ([1]; 4-OH-tamoxifen in medium 1 µM)	drug sensitivity score [2]	drug sensitivity score [3]	drug sensitivity score [4]	drug sensitivity score [5]	drug sensitivity score [6]	drug sensitivity score [7]	drug sensitivity score ([8]; 4-OH-tamoxifen in medium 0 µM)	drug sensitivity score ([8]; 4-OH-tamoxifen in medium 1 µM)	drug sensitivity score ([9]; 4-OH-tamoxifen in medium 0 µM)	drug sensitivity score ([9]; 4-OH-tamoxifen in medium 1 µM)	drug sensitivity score [10]	drug sensitivity score ([11]; 4-OH-tamoxifen in medium 0 µM)	drug sensitivity score ([11]; 4-OH-tamoxifen in medium 1 µM)	relative IC50 ([12]; 4-OH-tamoxifen in medium 0 µM) [µM]	relative IC50 ([12]; 4-OH-tamoxifen in medium 1 µM) [µM]	relative IC50 [13] [µM]	relative IC50 [14] [nM]	relative IC50 ([15]; 4-OH-tamoxifen in medium 0 µM) [µM]	relative IC50 ([16]; 4-OH-tamoxifen in medium 0 µM) [µM]	relative IC50 ([17]; 4-OH-tamoxifen in medium 1 µM) [µM]	relative IC50 [18] [µM]	relative IC50 [19] [µM]	relative IC50 [20] [µM]	relative IC50 ([15]; 4-OH-tamoxifen in medium 1 µM) [µM]	relative IC50 ([17]; 4-OH-tamoxifen in medium 0 µM) [µM]	relative IC50 [21] [µM]	relative IC50 [22] [µM]	relative IC50 ([16]; 4-OH-tamoxifen in medium 1 µM) [µM]
CC[C@@H]1C(=O)N(C)c2cnc(Nc3ccc(C(=O)NC4CCN(C)CC4)cc3OC)nc2N1C1CCCC1 [BI 2536]	3.73	7.89	1	3.5	1.18	4.25	0	0.933	2.89	2.08	3.7	0.711	1.24	3.44	10.1	0.0285	0.0204	0.0678	75.4	0.109	–	–	–	–	–	–	–	–	–	–
Cc1ccc(C(=O)Nc2ccc(CN3CCN(C)CC3)c(C(F)(F)F)c2)cc1C#Cc1cnc2cccnn12	0	1.07	0.0086	11.6	0.0834	1.72	0.248	0	0	0.047	0.62	1.21	1.26	0	0.178	> 1	0.458	0.0432	337	–	> 1	0.391	0.406	–	–	–	–	–	–	–
C=C(c1ccc(C(=O)O)cc1)c1cc2c(cc1C)C(C)(C)CCC2(C)C [Bexarotene]	0	0.345	0	3.44	0.973	0	3.15	0	0.367	0.925	0.69	0.469	0	0	0	> 10	–	–	> 10000	> 10	–	–	> 10	> 10	> 10	> 10	–	–	–	–
CC(C)n1cnc2c(NCCc3ccc(O)cc3)nc(-c3csc4ccccc34)nc21 [StemRegenin 1]	1.47	5.07	0.327	1.95	1.51	4.97	0.218	5.49	0	0.414	1.21	2.41	7.32	1.85	11.7	–	3.38	3.41	1570	4.4	–	3.48	2.12	–	2.83	0.335	4.12	–	–	–
CN(N=O)C(=O)N[C@@H](C=O)[C@@H](O)[C@H](O)[C@H](O)CO [Streptozocin]	0	0	0	0	0	0	0	0	0	0	0	0	0	0	0	> 10	> 10	> 10	–	> 10	> 10	> 10	> 10	> 10	> 10	> 10	> 10	> 10	> 10	> 10
O=S(=O)(c1cccc2cnccc12)N1CCCNCC1 [Fasudil  (HA-1077)]	1.03	5.24	0	1.67	0	1.06	0	6.54	0	0	0	0.739	6.87	0.328	0	> 50	> 50	> 50	–	–	> 50	> 50	> 50	> 50	> 50	> 50	> 50	> 50	> 50	> 50
O=P1(N(CCCl)CCCl)NCCCO1 (stereo not drawn) [Clafen (Cyclophosphamide, Endoxan)]	0	0	0	0	0	0.114	0	0	0	0	0	0	0	0	0.034	> 40	> 40	> 40	–	> 40	> 40	> 40	> 40	> 40	> 40	–	> 40	> 40	> 40	> 40
